Assay results reported in patent publication US12109202B2, “Fixed dose combination of cholinesterase inhibitor and a quaternary ammonium antimuscarinic agent to treat neurodegenerative cognitive disorders” (priority 2021, dated 2024).

What was measured:
[1] = Phase 1 trial, rivastigmine and glycopyrrolate administrations: rivastigmine blood serum concentration time profile (FIG. 2A)
Text: The serum rivastigmine levels were obtained over the course of twelve hours post-administration.

[2] = Phase 1 trial, rivastigmine and trospium administrations: rivastigmine blood serum concentration time profile (FIG. 2B); details: 6 mg rivastigmine fed state one hour after 20 mg trospium fasting (subject 1008) versus simultaneous fasting (1001, 1002, 1005)
Description: Patients 1001, 1002, and 1005 were administered trospium and rivastigmine simultaneously in a fasting state. Subject 1008 was administered trospium and rivastigmine in fasting and fed states, respectively.

Q: With CCN(C)C(=O)Oc1cccc([C@H](C)N(C)C)c1 [rivastigmine] as the compound, how does the “rivastigmine blood serum concentration (time profile)” value ([1]; patient 1006, co-formulated drug delivery element with glycopyrrolate taken in a fasting state, 12 hours post dose) read?
A: The value was 10 ng/mL.

Q: What about the “adverse effects, separate versus simultaneous administration” value ([1]; patients 1010 and 1011, glycopyrrolate fasted, rivastigmine with food one hour later) of the same compound?
A: The value was “reduced adverse effects, particularly nausea”.

Q: And the “peak rivastigmine serum concentration, separate versus simultaneous administration” value ([1]; patients 1010 and 1011, glycopyrrolate fasted, rivastigmine with food one hour later, compared with patients 1003, 1004 coadministered fasted)?
A: Its value is “delayed peak serum concentration associated with lower peak rivastigmine levels”.

Q: What about the “peak rivastigmine blood serum level, taken with food” value [2] of the same compound?
A: The value was “attenuated peak rivastigmine levels”.
